# Test results: patent publication US8716242B2, “β-hairpin peptidomimetics” (priority 2009, dated 2014)
# Numbered stars: 1 amine (or outer) side, 2 acyl side, 3 side chain; on linkers, the order of the positions; unused ones are H or OH. Bridge positions count the residues as written; N and C are the ends. Square brackets hold non-standard residues; d marks the D form. Side chains are listed from the residue outwards. Peptide text beside a SMILES is read from it. * marks the point of attachment. Cholyl = C[C@H](CCC(=O)*)[C@H]1CC[C@H]2[C@@H]3[C@H](O)C[C@@H]4C[C@H](O)CC[C@]4(C)[C@H]3C[C@H](O)[C@]12C; Adamantane1carbonyl = O=C(C12CC3CC(CC(C3)C1)C2)*; Hexadecanoyl(16-OH) = O=C(CCCCCCCCCCCCCCCO)*; X1 = O=C([C@H]1C[C@H](N[*:3])CN1[*:1])[*:2]; NH(1-Adamantyl) = C1C2CC3CC1CC(N*)(C2)C3; Gly(decyl) = CCCCCCCCCC[C@H](N)C(=O)O; Myristoyl = CCCCCCCCCCCCCC(=O)*; Octanoyl = CCCCCCCC(=O)*; Dab = NCC[C@H](N)C(=O)O
# Tests used:
# [1] = Cytotoxicity, MTT reduction assay, HELA cells; type: cell-based; details: 48 h, 12.5-50 μM
# Description: (§1) Mouse pre-B cells were cultured in RPMI1640 plus 5% FBS, antibiotic/antimycotic, non essential amino acid, 50 μM β-mercaptoethanol and 1 mM natrium pyruvate. HELA cells were maintained in RPMI1640 plus 10% FBS, pen/strept and 2 mM L-glutamine. Cos-7 cells were grown in DMEM medium with […] glucose supplemented with 10% FCS, pen/strept and 2 mM L-glutamine. All cell lines were grown at 37° C. at 5% CO2. Cell media, media supplements, PBS-buffer, HEPES, antibiotic/antimycotic, pen/strept, non essential amino acid, L-glutamine, β-mercaptoethanol and sera were purchased from Gibco (Pailsey, UK). All fine chemicals were supplied by Merck (Darmstadt, Germany).
# (§2) The cytotoxicity of the peptides to HELA cells (Acc57) and COS-7 cells (CRL-1651) was determined using the MTT reduction assay (T. Mossman, J. Immunol. Meth. 1983, 65, 55-63; M. V. Berridge, A. S. Tan, Arch. Biochem. Biophys. 1993, 303, 474-482). Briefly, the method was as follows: 4000 HELA cells/well and 3400 COS-7 cells/well were seeded and grown in 96-well microtiter plates for 24 h at 37° C. at 5% CO2. Thereafter, time zero (Tz) was determined by MTT reduction (see below). The supernatant of the remaining wells was discarded, and fresh medium and compounds in serial dilutions (12.5, 25 and 50 μM, triplicates) were pipetted into the wells. After incubation of the cells for 48 h at 37° C. at 5% CO2 the supernatant was discarded again and 100 μL MTT reagent (0.5 mg/mL in RPMI1640 and DMEM, respectively)/well was added. Following incubation at 37° C. for 2-4 h the media were aspirated and the cells were spiked (100 μL isopropanol/well). The absorbance of the solubilized formazan was measured at 595 nm (OD595peptide). For each concentration averages were calculated from triplicates. The percentage of growth was calculated as follows: (OD595peptide-OD595Tz-OD595Empty well)/(OD595Tz-OD595Empty well)×100%. The GI50 (Growth Inhibition) concentrations were calculated for each peptide by using a trend line function for the concentrations (50, 25, 12.5 and 0 μM), the corresponding percentages and the value 50, (=TREND (C50: C0, %50:%0,50).
# [2] = Cytotoxicity, MTT reduction assay, COS-7 cells; type: cell-based; details: 48 h, 12.5-50 μM
# Description: as §1, §2
# [3] = Plasma stability in human plasma; type: in vitro ADME; details: human plasma, 37° C.; for remaining at 24 h, 10 μM: 1440 min, read-out: human pl. cpd left at 1440 min; for human pl. T1/2 / half-life: up to 1440 min; for half-life: read-out: human pl. T1/2
# Description: (§3) Percent hemolysis was calculated as follows: (OD540peptide/OD540H2O)×100%. 2.6. Plasma Stability
# (§4) The stability of the peptides in human and mouse plasma was determined by applying the following method: 346.5 μL/deep well of freshly thawed human plasma (Basler Blutspendedienst) and mouse plasma (Harlan Sera-Lab, UK), respectively, were spiked with 3.5 μL/well of compound dissolved in DMSO/H2O ([…] [v/v], 1 mM, triplicate) and incubated at 37° C. At t=0, 15, 30, 60, 120, 240 and 1440 min aliquots of 50 μL were transferred to filtration plate wells containing 150 μL/well of 2% formic acid in acetonitrile. Following shaking for 2 min the occurred suspensions were filtrated by vacuum and 50 μL of each filtrate was mixed with 100 μL of 1% formic acid in H2O. After transfer to a propylene microtiter plate, the filtrates were analyzed by LC/MS as follows: Column: Waters, XBridge C18, mobile phases: (A) water+0.1% formic acid and (B) acetonitrile/water, 95/5 (v/v)+0.1% formic acid, gradient: 5%-100% (B) in 2 minutes, electrospray ionization, MRM detection (triple quadrupole). The peak areas were determined and triplicate values are averaged. The stability is expressed in percent of the initial value at t=0. (tx/t0×100). By using the TREND function of EXCEL (Microsoft Office 2003) T1/2 were determined.
# [4] = Plasma stability in mouse plasma; type: in vitro ADME; details: mouse plasma, 37° C.; for remaining at 24 h, 10 μM: 1440 min, read-out: mouse pl. cpd left at 1440 min; for mouse pl. T1/2: up to 1440 min
# Description: as §3, §4
SMILES,GI50 ([1]; HELA cells),GI50 ([2]; COS-7 cells),"remaining at 24 h, 10 μM [3]",human pl. T1/2 [3],"remaining at 24 h, 10 μM [4]",mouse pl. T1/2 [4],half-life [3],GI50 [1],GI50 [2]
CCCCCCCCCC[C@@H]1NC(=O)[C@H](Cc2ccc(O)cc2)NC(=O)[C@@H]2CSSC[C@H](NC(=O)[C@H](Cc3ccc(O)cc3)NC(=O)[C@H](Cc3c[nH]cn3)NC(=O)[C@H](Cc3ccc(O)cc3)NC(=O)[C@@H]3CCCN3C(=O)[C@H]3CCCN3C(=O)[C@H](CCCCN)NC1=O)C(=O)N[C@@H](CCCNC(=N)N)C(=O)N[C@@H](C)C(=O)N1CCC[C@@H]1C(=O)N[C@@H](CCN)C(=O)N[C@@H](CCCNC(=N)N)C(=O)N[C@@H](Cc1ccc(O)cc1)C(=O)N2 [Ex. 8] (cyclo(YHYCRA[dP][Dab]RYCY[Gly(decyl)]K[dP]P); disulfide 4-11),> 26 µM,> 44 µM,79%,24 h,82%,24 h,,,
CCCCCCCC(=O)NCCCC[C@@H]1NC(=O)[C@H](CCC(N)=O)NC(=O)[C@H](Cc2ccc(O)cc2)NC(=O)[C@@H]2CSSC[C@H](NC(=O)[C@H](Cc3ccc(O)cc3)NC(=O)[C@H](CCCNC(=N)N)NC(=O)[C@H](Cc3ccc(O)cc3)NC(=O)[C@@H]3CCCN3C(=O)[C@H]3CCCN3C1=O)C(=O)N[C@@H](CO)C(=O)N[C@@H](C)C(=O)N1CCC[C@@H]1C(=O)N[C@@H](CCN)C(=O)N[C@@H](CCCNC(=N)N)C(=O)N[C@@H](Cc1ccc(O)cc1)C(=O)N2 [Ex. 32] (cyclo(YRYCSA[dP][Dab]RYCYQK(Octanoyl)[dP]P); disulfide 4-11),> 24 µM,> 50 µM,39%,,,,12.9 h,,
C[C@@H]1NC(=O)[C@H](CO)NC(=O)[C@@H]2CSSC[C@H](NC(=O)[C@H](Cc3ccc(O)cc3)NC(=O)[C@H](CCCNC(=N)N)NC(=O)[C@H](CCN)NC(=O)[C@H]3CCCN3C1=O)C(=O)N[C@@H](Cc1ccc(O)cc1)C(=O)N[C@@H](CCCCNC(=O)CCCCCCCCCCCCCCCO)C(=O)N[C@@H](CCCCN)C(=O)N1CCC[C@@H]1C(=O)N1CCC[C@H]1C(=O)N[C@@H](Cc1ccc(O)cc1)C(=O)N[C@@H](Cc1c[nH]cn1)C(=O)N[C@@H](Cc1ccc(O)cc1)C(=O)N2 [Ex. 21] (cyclo(YHYCSA[dP][Dab]RYCYK(Hexadecanoyl(16-OH))K[dP]P); disulfide 4-11),,,49%,,63%,24 h,18.6 h,> 50 µM,> 50 µM
CCCCCCCCCCCCCC(=O)N[C@H]1C[C@@H]2C(=O)N[C@@H](CCN)C(=O)N[C@@H](CCCNC(=N)N)C(=O)N[C@@H](Cc3ccc(O)cc3)C(=O)N[C@H]3CSSC[C@H](NC(=O)[C@H]([C@@H](C)O)NC(=O)[C@H](Cc4c[nH]cn4)NC(=O)[C@H](Cc4ccc(O)cc4)NC(=O)[C@@H]4CCCN4C(=O)[C@H]4CCCN4C(=O)[C@H](CCC(N)=O)NC(=O)[C@H](CCC(N)=O)NC(=O)[C@H](Cc4ccc(O)cc4)NC3=O)C(=O)N[C@@H](CCCNC(=N)N)C(=O)NCC(=O)N2C1 [Ex. 4] (cyclo(YHTCRG[X1](Myristoyl)[Dab]RYCYQQ[dP]P); disulfide 4-11),> 50 µM,> 50 µM,66%,,62%,24 h,5.25 h,,
C[C@@H](O)[C@@H]1NC(=O)[C@H](Cc2c[nH]cn2)NC(=O)[C@H](Cc2ccc(O)cc2)NC(=O)[C@@H]2CCCN2C(=O)[C@H]2CCCN2C(=O)[C@H](CCC(N)=O)NC(=O)[C@H](CCC(=O)NC23CC4CC(CC(C4)C2)C3)NC(=O)[C@H](Cc2ccc(O)cc2)NC(=O)[C@@H]2CSSC[C@H](NC1=O)C(=O)N[C@@H](CCCNC(=N)N)C(=O)NCC(=O)N1CCC[C@@H]1C(=O)N[C@@H](CCN)C(=O)N[C@@H](CCCNC(=N)N)C(=O)N[C@@H](Cc1ccc(O)cc1)C(=O)N2 [Ex. 31] (cyclo(YHTCRG[dP][Dab]RYCYE(NH(1-Adamantyl))Q[dP]P); disulfide 4-11),,,68%,24 h,,,,> 37 µM,> 50 µM
C[C@@H]1NC(=O)[C@H](CO)NC(=O)[C@@H]2CSSC[C@H](NC(=O)[C@H](Cc3ccc(O)cc3)NC(=O)[C@H](CCCNC(=N)N)NC(=O)[C@H](CCN)NC(=O)[C@H]3CCCN3C1=O)C(=O)N[C@@H](Cc1ccc(O)cc1)C(=O)N[C@@H](CCC(N)=O)C(=O)N[C@@H](CCCCNC(=O)CNC(=O)CC[C@@H](C)[C@H]1CC[C@H]3[C@@H]4[C@H](O)C[C@@H]5C[C@H](O)CC[C@]5(C)[C@H]4C[C@H](O)[C@]13C)C(=O)N1CCC[C@@H]1C(=O)N1CCC[C@H]1C(=O)N[C@@H](Cc1ccc(O)cc1)C(=O)N[C@@H](CCCNC(=N)N)C(=O)N[C@@H](Cc1ccc(O)cc1)C(=O)N2 [Ex. 33] (cyclo(YRYCSA[dP][Dab]RYCYQK([Gly-Cholyl])[dP]P); disulfide 4-11),> 18 µM,> 50 µM,61%,,,,20.4 h,,
C[C@@H](O)[C@@H]1NC(=O)[C@H](Cc2c[nH]cn2)NC(=O)[C@H](Cc2ccc(O)cc2)NC(=O)[C@@H]2CCCN2C(=O)[C@H]2CCCN2C(=O)[C@H](CCC(=O)NC23CC4CC(CC(C4)C2)C3)NC(=O)[C@H](CCC(N)=O)NC(=O)[C@H](Cc2ccc(O)cc2)NC(=O)[C@@H]2CSSC[C@H](NC1=O)C(=O)N[C@@H](CCCNC(=N)N)C(=O)NCC(=O)N1CCC[C@@H]1C(=O)N[C@@H](CCN)C(=O)N[C@@H](CCCNC(=N)N)C(=O)N[C@@H](Cc1ccc(O)cc1)C(=O)N2 [Ex. 36] (cyclo(YHTCRG[dP][Dab]RYCYQE(NH(1-Adamantyl))[dP]P); disulfide 4-11),,,53%,,,,23.2 h,> 50 µM,> 50 µM
C[C@@H](O)[C@@H]1NC(=O)[C@H](Cc2c[nH]cn2)NC(=O)[C@H](Cc2ccc(O)cc2)NC(=O)[C@@H]2CCCN2C(=O)[C@H]2CCCN2C(=O)[C@H](CCCCNC(=O)C23CC4CC(CC(C4)C2)C3)NC(=O)[C@H](CCC(N)=O)NC(=O)[C@H](Cc2ccc(O)cc2)NC(=O)[C@@H]2CSSC[C@H](NC1=O)C(=O)N[C@@H](CCCNC(=N)N)C(=O)NCC(=O)N1CCC[C@@H]1C(=O)N[C@@H](CCN)C(=O)N[C@@H](CCCNC(=N)N)C(=O)N[C@@H](Cc1ccc(O)cc1)C(=O)N2 [Ex. 35] (cyclo(YHTCRG[dP][Dab]RYCYQK(Adamantane1carbonyl)[dP]P); disulfide 4-11),,,63%,24 h,,,,> 50 µM,> 30 µM
